Experiments:
Assay type in all cases: cell-based, Staphylococcus aureus
[1] = tested on: TSST-1 production by S. aureus (MN8)
S. aureus (MN8) = tested on: S. aureus (MN8)
[2] = tested on: TSST-1 production by S. aureus FRI-1187
[3] = tested on: TSST-1 production by S. aureus FRI-1169

Compound	ELISA: TSST-1 ng/OD unit [1]	CFU/mL (S. aureus (MN8))	Optical Density 600 nm (S. aureus (MN8))	ELISA: TSST-1 ng/OD unit [2]	Reduction of Toxin % [2]	ELISA: TSST-1 ng/OD unit [3]	Reduction of Toxin % [3]
4-hydroxydiphenyl methane [4-Hydroxydiphenyl-methane]	785 ng/OD unit	1.1E+08 CFU/mL	0.581				
Oc1c(Cl)cc(Cl)c(Cl)c1Cc1c(O)c(Cl)cc(Cl)c1Cl [Hexachlorophene, hexachlorophene]	330 ng/OD unit						
Oc1cc(Cl)ccc1Oc1ccc(Cl)cc1Cl [Triclosan, triclosan]				95 ng/OD unit	86%	40 ng/OD unit	96%

Source: patent US20080096850A1 (priority 2001, published 2008)
